Data reported in US20110230430A1, “SAPONIN EXTRACT FROM SAPONARIA SPP. AND USES THEREOF” (NATIONAL RESEARCH COUNCIL OF CANADA, priority 2008, published 2011).

Experiments:
Type in all cases: cell-based, human
MDA-MB-231 cells = test: Dual Sensor: MitoCasp Assay in MDA-MB-231 breast cancer cells
Text: (§1) Techniques to assay enzymatic and signaling processes involved in apoptosis have been developed as standard protocols. One example of an early step in apoptosis, is the release of cytochrome C from mitochondria and the activation of caspase-3. Induction of the caspases (a series of cytosolic proteases) is one of the most consistently observed features of apoptosis. Caspases are a family of proteolytic enzymes that transmit the apoptotic signal using a proteolytic cascade. […] Caspases 3 and 7 are effector caspases, central to the caspase cascade pathways. In particular, caspase-3 plays a central role in the process. When caspases are activated, they cleave target proteins; one of the most important of these is poly-(ADP-ribose) polymerase (PARP), which is a protein located in the nucleus. Therefore, assays detecting release of cytochrome C, detecting caspase-3 activity and detecting PARP degradation are effective determinants of apoptosis. The loss of mitochondrial membrane potential is known to occur during apoptosis. To analyze mitochondrial membrane potential, a cationic dye may be used which accumulates in the mitochondria of healthy cells. Collapse of the mitochondrial membrane potential during apoptosis prevents the dye from accumulating in the mitochondria resulting in a decrease in fluorescent intensity that can be detected with flow cytometry. Dual Sensor: MitoCasp™ (Cell Technology) used herein in the Examples is an assay that measures caspase 3/7 activity and cells with decreased mitochondrial membrane potential. In this assay, caspase 3/7 activity is detected using a cell permeable carboxyfluorescein labeled caspase inhibitor, which binds covalently to active caspases 3 and 7. Cells that contain bound inhibitor are detected by an increase in fluorescence when samples are analyzed by flow cytometry.
(§2) Following centrifugation at 500×g for 5 min, cell pellets were resuspended in PBS at 3.3×10^6 cells/mL. 300 μL cell suspension was mixed with 10 μL each of 30X Mitochondria Membrane Potential Dye and 30X Caspase 3/7 detection reagent. Following incubation for 60 min under normal growth conditions, cells were washed twice with 1× wash buffer and resuspended in 0.5 mL 1× wash buffer. Samples were analyzed by flow cytometry measuring the fluorescence emissions from 515 nm to 530 nm for caspase detection, and 574 nm to 600 nm for mitochondrial membrane potential detection.
The MDA-MB-231 cell line (ATCC #HTB-26) was derived from the pleural effusion of a patient with a breast adenocarcinoma (Cailleau et al., 1974). The cells were maintained in RPMI 1640 (Gibco) supplemented with 10% fetal bovine serum (Camera), 100 U/mL penicillin, 100 μg/mL streptomycin and 0.25 μg/mL amphotericin B. Cultures were maintained in medium at 37° C. with 5% CO2 and 100% relative humidity. […]

CRL-2522 cells [1] = test: Dual Sensor: MitoCasp Assay in CRL-2522 normal fibroblast cells
Text: as §1, §2
CRL-2522 cells, acquired from ATCC, (American Type Culture Collection) are normal fibroblast cells that originated from human foreskin. CRL-2522 cells were maintained in RPMI 1640 medium (Gibco) supplemented with 10% fetal bovine serum (Cansera), 100 U/mL penicillin, 100 μg/mL streptomycin and 0.25 μg/mL amphotericin B. Cultures were maintained in medium at 37° C. with 5% CO2 and 100% relative humidity. […]

PC-3 cells = test: Vybrant Apoptosis Assay Kit #2 in PC-3 cells
Text: (§3) Another apoptotic assay is the Annexin-V detection of extracellular phosphatidlyserine (PS). Normally, phosphatidylserine is localized on the inner membrane of the plasmalemma. However, during the early stages of apoptosis, externalization of PS takes place. Annexin-V is a calcium binding protein which binds to PS and can be observed with annexin-V-FITC staining by flow cytometry (Martin, et al., 1995). Alexa Fluor® 488-labeled Annexin V, which has a high affinity for PS, is used to detect apoptotic cells by binding to PS on the outer surface of the cell. Propidium iodide staining is used concurrently to detect dead cells. When cells are analyzed by flow cytometry apoptotic cells show Annexin V staining, late apoptotic cells show PI and Annexin V staining, and dead cells show only PI staining. The Vybrant® Apoptosis Assay Kit #2 (Molecular Probes™) used herein in the Examples is an assay that measures Annexin-V positive cells.
PC-3 cells (ATCC #CRL-1435) were derived from a prostate adenocarcinoma (Kaighn et al., 1979). They were maintained in RPMI 1640 medium (Gibco) supplemented with 10% fetal bovine serum (Cansera), 100 U/mL penicillin, and 100 μg/mL streptomycin and 0.25 μg/mL amphotericin B. Cultures were maintained in medium at 37° C. with 5% CO2 and 100% relative humidity.
PC-3 cells were seeded in tissue culture flasks with regular growth medium and maintained under normal conditions. […] Following incubation under normal growth conditions for the specified time, cells were washed once with cold phosphate-buffered saline (PBS) (137 mM NaCl, 2.7 mM KCl, 4.3 mM Na2HPO4.7H2O, 1.4 mM KH2PO4) and harvested as previously described. Assays were carried out according to instructions given in kits. All Flow Cytometry was performed using a Coulter Epics XL (Beckman).

CRL-2522 cells [2] = test: Vybrant Apoptosis Assay Kit #2 in CRL-2522 cells
Text: as §3
CRL-2522 cells, acquired from ATCC, (American Type Culture Collection) are normal fibroblast cells that originated from human foreskin. CRL-2522 cells were maintained in RPMI 1640 medium (Gibco) supplemented with 10% fetal bovine serum (Cansera), 100 U/mL penicillin, 100 μg/mL streptomycin and 0.25 μg/mL amphotericin B. Cultures were maintained in medium at 37° C. with 5% CO2 and 100% relative humidity.
CRL-2522 cells were treated with PC1448 and assayed for apoptosis as described above for PC-3 cells.

[3] = 5.0 μM saponin, 36 hours (comparison of saponins)
[4] = CRL-2522 cells, 2.5 μM PC1448, 37 hr
[5] = CRL-2522 cells, 5.0 μM PC1448, 37 hr
[6] = CRL-2522 cells, 10.0 μM PC1448, 37 hr
[7] = CRL-2522 cells, 14 μM PC1448, 10 hr
[8] = CRL-2522 cells, 14 μM PC1448, 20 hr
[9] = CRL-2522 cells, 14 μM PC1448, 30 hr
[10] = CRL-2522 cells, 15.0 μM PC1448, 37 hr

For Segetoside H [PC1448], which “Cells with caspase 3/7 activity” value (MDA-MB-231 cells; 2.5 μM PC1448, 36 hr) is on record?
The value was 19.3%.

And the “Cells with decreased mitochondrial membrane potential” value (MDA-MB-231 cells; 2.5 μM PC1448, 36 hr)?
The value was 9.9%.

What about the “Cells with caspase 3/7 activity” value (MDA-MB-231 cells; 5.0 μM PC1448, 36 hr) of the same substance?
Its value is 25.8%.

What about the “Cells with decreased mitochondrial membrane potential” value (MDA-MB-231 cells; 5.0 μM PC1448, 36 hr) of the same substance?
Its value is 12.6%.

What about the “Cells with caspase 3/7 activity” value (MDA-MB-231 cells; [3]) of the same substance?
The value was 12.8%.

What about the “Cells with decreased mitochondrial membrane potential” value (MDA-MB-231 cells; [3]) of the same substance?
Its value is 5.3%.

What about the “Cells with caspase 3/7 activity” value (MDA-MB-231 cells; 10.0 μM PC1448, 36 hr) of the same substance?
Its value is 40.0%.

What about the “Cells with decreased mitochondrial membrane potential” value (MDA-MB-231 cells; 10.0 μM PC1448, 36 hr) of the same substance?
Its value is 17.9%.

And the “Cells with caspase 3/7 activity” value (MDA-MB-231 cells; 15.0 μM PC1448, 36 hr)?
The value was 40.9%.

And the “Cells with decreased mitochondrial membrane potential” value (MDA-MB-231 cells; 15.0 μM PC1448, 36 hr)?
Its value is 20.8%.

What about the “Concentration of greatest effect on apoptosis” value (MDA-MB-231 cells; 36 hours) of the same substance?
The value was “above 10 μM”.

And the “Induction of apoptosis at concentrations as low as” value (MDA-MB-231 cells; 36 hours)?
Its value is 5.0 µM.

And the “Cells with caspase 3/7 activity” value (CRL-2522 cells [1]; [4])?
Its value is 1.7%.

And the “Cells with decreased mitochondrial membrane potential” value (CRL-2522 cells [1]; [4])?
Its value is 5.6%.

What about the “Cells with caspase 3/7 activity” value (CRL-2522 cells [1]; [5]) of the same substance?
The value was 4.0%.

And the “Cells with decreased mitochondrial membrane potential” value (CRL-2522 cells [1]; [5])?
The value was 5.0%.

What about the “Cells with caspase 3/7 activity” value (CRL-2522 cells [1]; [6]) of the same substance?
The value was 21.9%.

And the “Cells with decreased mitochondrial membrane potential” value (CRL-2522 cells [1]; [6])?
The value was 4.6%.

What about the “Effect on apoptosis (in words)” value (CRL-2522 cells [1]; CRL-2522 cells, 14 μM PC1448, 10-30 hr) of the same substance?
Its value is “no significant effect on apoptosis”.

And the “Cells with caspase 3/7 activity” value (CRL-2522 cells [1]; [7])?
The value was 3.7%.

And the “Cells with decreased mitochondrial membrane potential” value (CRL-2522 cells [1]; [7])?
The value was 1.4%.

And the “Cells with caspase 3/7 activity” value (CRL-2522 cells [1]; [8])?
The value was 5.5%.

What about the “Cells with decreased mitochondrial membrane potential” value (CRL-2522 cells [1]; [8]) of the same substance?
Its value is 1.4%.

And the “Cells with caspase 3/7 activity” value (CRL-2522 cells [1]; [9])?
The value was 32.8%.

And the “Cells with decreased mitochondrial membrane potential” value (CRL-2522 cells [1]; [9])?
The value was 0.8%.

What about the “Cells with caspase 3/7 activity” value (CRL-2522 cells [1]; [10]) of the same substance?
The value was 9.4%.

What about the “Cells with decreased mitochondrial membrane potential” value (CRL-2522 cells [1]; [10]) of the same substance?
Its value is 18.5%.

And the “Cells with Caspase 3/7 activity and decreased mitochondrial membrane potential vs untreated (in words)” value (CRL-2522 cells [1]; CRL-2522 cells, PC1448 15.0-2.5 μM, 37 hours)?
The value was “variable increase”.

And the “Apoptosis in non-cancerous cell line (summary in words)” value (CRL-2522 cells [1]; fibroblast cell line CRL-2522, summary of the Examples)?
Its value is “no or little apoptosis”.

What about the Annexin-V positive cells (PC-3 cells; 14 μM PC1448, 06 hr) of the same substance?
Its Annexin-V positive cells is 12.4%.

What about the Annexin-V positive cells (PC-3 cells; 14 μM PC1448, 16 hr) of the same substance?
The Annexin-V positive cells was 28.3%.

What about the Annexin-V positive cells (PC-3 cells; 14 μM PC1448, 24 hr) of the same substance?
Its Annexin-V positive cells is 34.7%.

What about the “Increase in Annexin V positive cells vs untreated” value (PC-3 cells; 14 μM PC1448, 24 hr) of the same substance?
Its value is “three fold”.

What about the “Change in number of cells showing Annexin V staining (in words)” value (CRL-2522 cells [2]; 14 μM PC1448, 10-40 hr) of the same substance?
The value was “No meaningful changes”.

And the Annexin-V positive cells (CRL-2522 cells [2]; 14 μM PC1448, 10 hr)?
The Annexin-V positive cells was 17.2%.

What about the Annexin-V positive cells (CRL-2522 cells [2]; 14 μM PC1448, 20 hr) of the same substance?
The Annexin-V positive cells was 9.3%.

What about the Annexin-V positive cells (CRL-2522 cells [2]; 14 μM PC1448, 40 hr) of the same substance?
Its Annexin-V positive cells is 18.2%.
